This is an account of results in US11553718B2, “Mic reduction with lithium ions” (priority 2014, dated 2023).

The subject of test [1] is S. aureus strain DSMZ 346. Briefly: MIC determination / bacterial count in CaCO3 slurry with or without lithium ions. The test is classed as cell-based. Particulars: for bacterial count: S. aureus DSMZ 346; for antimicrobial effect of lithium ions provided alone: S. aureus strain; for MIC: Staphylococcus aureus, DSMZ346, S. aureus, read-out: MIC active/aequeous. The procedure:
(§1) When not otherwise indicated, the quoted bacterial counts (values are in cfu/plate) in the Tables here below are determined after 2 days following plate-out and incubation at 30° C. The counting method was as follows. The aqueous preparations were stirred well with a cotton swap (e.g. Applimed SA, No. 1102245); the excess aqueous preparation was removed by dipping it gently to the side of the aqueous preparation container, leaving approximately 200 mg of aqueous preparation on the swap. […] TSA plates were then incubated for 48 h at 30° C. Colony forming units (cfu) were then counted and reported as cfu/plate. Counts from 100 to 999 cfu per plate are reported as ≥100 cfu/plate. Counts of 1000 cfu and above per plate are reported as ≥1000 cfu/plate. Yeast and moulds were counted as described for bacteria with the following exceptions, a) Sabouraud Dextrose Agar (SDA) containing Chloramphenicol (e.g. heipha Dr. Miller GmbH, No. 1460030020) were used instead of TSA, b) SDA plates were incubated at 25° for 5 days and c) cfu were counted and reported after 48 h and 5 days of incubation. Yeast and moulds counts from 20 to 99 cfu per plate are reported as […]. Yeast and moulds counts of 100 cfu and above per plate are reported as >100 cfu/plate.
(§2) For determining the MIC, the tested microorganism, i.e. the strain of bacteria and/or strain of yeast and/or strain of mould, were freshly grown until the end of the logarithmic growth phase according to the requirements of the individual species to a density of approximately 10^7-10^9 cells/ml.
(§3) For example, fresh bacteria cultures of the bacteria E. coli, e.g. E. coli ATCC 11229, and S. aureus, e.g. S. aureus strains DSMZ 346, were prepared by inoculation of 3 ml liquid growth media (tryptic soy broth, e.g. Fluka Cat. No. 22092) from a stock culture and incubation for 16 to 20 h at 30° C. with agitation at 150 rotations per minutes (rpm) leading to a cell density of approximately 2×10^8 cells/ml. Fresh cultures of resistant bacteria, adapted to the conditions in biocide containing CaCO3 slurries, were prepared by inoculation of 50 g 75 wt.-% solid content CaCO3 slurry from a stock culture and incubated for 14 to 28 days at 30° C. without agitation.
(§4) Lithium ions were added to the aqueous preparation (e.g. CaCO3 slurry) by the addition of a water soluble lithium salt. For example to 50 g CaCO3 slurry with a solid content of 75% (w/w) 1.177 ml of a 74 g/Li2CO3 suspension was added and mixed well leading to a lithium ion concentration of 172 mM or 1205 ppm in the water phase. As another example to 50 g CaCO3 slurry with a solid content of 75 wt.-% (w/w) 0.04 ml of a 292 g/L Li3Citrate (2M) solution was added and mixed well leading to a lithium ion concentration of 19 mM or 135 ppm in the water phase.
(§5) The biocide to be tested was added to the aqueous preparation (e.g. CaCO3 slurry with or without lithium ions) in increasing concentrations starting from 0 ppm (without biocide). The concentrations ranged from concentrations higher than recommended by the supplier, to very low amounts (as low as 1 ppm or lower). Of each biocide concentration a 3 ml sample of aqueous preparation was combined with 20 μl fresh bacterial culture.
(§6) All samples were incubated at 30° C. for 24 h. After incubation colony forming units (cfu) per plate (cfu/plate) were determined as described above under bacterial count.
(§7) The MIC for bacteria is defined as the lowest concentration of biocide in the presence or absence of lithium ion amongst all samples tested, where the bacterial concentration dropped below 100 cfu/plate. The MIC for yeast and mould is defined as the lowest concentration of biocide in the presence or absence of lithium ion amongst all samples tested, where the microbial concentration dropped below 20 cfu/plate.

Test [2] relates to E. coli strain ATCC11229. Described as above. The test is classed as cell-based. Conditions: for bacterial count: E. coli ATCC11229; for MIC ratio (MICwithout Li/MICLi): E. coli; for MIC: Escherichia coli. The procedure: as §1, §2, §3, §4, §5, §6, §7
Test [3] has as its system bacterial strain rOmyAK. In words: microbe, parasite or virus in culture. Conditions: for MIC: Thioalkalivibrio paradoxus, read-out: MIC active/aequeous, rOmyAK; for MIC ratio (MICwithout Li/MICLi): rOmyAK. The test is classed as cell-based, Pseudomonas mendocina. As for the experimental part:
as §1, §2, §3, §4, §5, §6, §7

Setting [4] is: S. aureus, Li^+ 329 mM (2305 ppm), Li2CO3.
Where [5] appears, read: S. aureus, Li^+ 423 mM (2964 ppm), Li2CO3.
The mark [6] stands for this setting: ATCC11229, read-out: MIC active/aequeous, E. coli, Li^+ 197 mM (1380 ppm), Li2CO3.
[7] abbreviates: ATCC11229, read-out: MIC active/aequeous, E. coli, Li^+ 329 mM (2305 ppm), Li2CO3.
[8] abbreviates: ATCC11229, read-out: MIC active/aequeous, E. coli, no Li^+.
Where [9] appears, read: S. aureus, Li^+ 197 mM (1380 ppm), Li2CO3.

Where “and” joins values, the source holds several entries; their conditions need not be identical. Equal values may be shown once. Read-outs that look alike come from different tables or passages of the source. Where only a bound is given, the exact number is not on record here.

For the compound `[Li+]` [Li^+], the bacterial count was at least 1000 cfu/plate in test [1] (no CMIT/MIT, 197 mM Li^+ (Li2CO3) alone); at least 1000 cfu/plate in test [1] (no Sodium pyrithione, 96 mM Li^+ (lithium citrate) alone); at least 100 cfu/plate in test [2] (no 4-chloro-3-methylphenol, 197 mM Li^+ (Li2CO3) alone); at least 1000 cfu/plate in test [3] (rOmy AK, no MIT, 329 mM Li^+ (Li2CO3) alone). Besides, the “antimicrobial effect of lithium ions provided alone” value was “no antimicrobial effect” in test [1] (lithium ions via Li2CO3, no biocide); “no antimicrobial effect” in test [1] (lithium ions via lithium citrate, no biocide); “no antimicrobial effect” in test [2] (E. coli strain, lithium ions via Li2CO3, no biocide); “no antimicrobial effect” in test [3] (rOmy AK strain, lithium ions via Li2CO3, no biocide).

For the compound `CCCCCCCCCCCCN=C(N)N.Cl` [Guanidinedodecyl monochloride], in test [2] (Li^+ 197 mM (1380 ppm), Li2CO3), the “MIC ratio (MICwithout Li/MICLi)” value is reported as over 2.4.

Regarding `O=S(=O)(C(Cl)(Cl)Cl)C(Cl)(Cl)Cl` [Hexachlorodimethyl sulfone], the “MIC ratio (MICwithout Li/MICLi)” value in test [1] (setting [4]) came to 1.33; in test [2] (Li^+ 197 mM (1380 ppm), Li2CO3), 1.67.

`[Na+].[O-][n+]1ccccc1[S-]` [Sodium pyrithione]: the “MIC ratio (MICwithout Li/MICLi)” value in test [2] (Li^+ 197 mM (1380 ppm), Li2CO3) was 3.

“Polyethoxyethoxyethylguanidinium hexachloride”: the “MIC ratio (MICwithout Li/MICLi)” value is given as over 1.33 in test [2] (Li^+ 197 mM (1380 ppm), Li2CO3) and over 8 in test [2] (Li^+ 423 mM (2964 ppm), Li2CO3).

As to `Cc1cc(O)ccc1Cl` [4-Chloro-3-methylphenol], the “MIC ratio (MICwithout Li/MICLi)” value in test [1] (setting [5]) is given as 1.5; in test [2] (Li^+ 197 mM (1380 ppm), Li2CO3) it was 2; in test [2] (Li^+ 329 mM (2305 ppm), Li2CO3), 4. Also, the MIC is 2480 µM and 354 µg/mL in test [1] (Li^+ 423 mM (2964 ppm), Li2CO3); 3720 µM and 531 µg/mL in test [1] (no Li^+); 177 µg/mL and 1240 µM in test [2] (setting [6]); 620 µM and 88.5 µg/mL in test [2] (setting [7]); 354 µg/mL and 2480 µM in test [2] (setting [8]). Further, the bacterial count in test [2] (88.5 ppm 4-chloro-3-methylphenol, 197 mM Li^+) was at least 100 cfu/plate; in test [2] (88.5 ppm 4-chloro-3-methylphenol, no Li^+) it was at least 1000 cfu/plate.

Turning to `O=CCCCC=O` [Glutaraldehyde], in test [1] (setting [9]), the “MIC ratio (MICwithout Li/MICLi)” value is over 10. The MIC in test [1] (Li^+ 197 mM (1380 ppm), Li2CO3) is 40 µM and 3.54 µg/mL; in test [1] (no Li^+), > 350 µM and > 35.4 µg/mL.

`OC1OCCOC1O` (stereo not drawn) [1,6-Dihydroxy-2,5-dioxane]: the MIC in test [3] (Li^+ 197 mM (1380 ppm), Li2CO3) was 8700 µM and 1060 µg/mL; in test [3] (Li^+ 423 mM (2964 ppm), Li2CO3), 5800 µM and 708 µg/mL; in test [3] (no Li^+), 3100 µM and > 1590 µg/mL. Further, the “MIC ratio (MICwithout Li/MICLi)” value in test [3] (Li^+ 197 mM (1380 ppm), Li2CO3) is listed as over 1.5; in test [3] (Li^+ 423 mM (2964 ppm), Li2CO3), over 2.25.

For `N#CSCSC#N` [Methylene bis(thiocyanate)], the “MIC ratio (MICwithout Li/MICLi)” value in test [1] (setting [4]) was 4.04.

Take `C=O` [Formaldehyde]: the “MIC ratio (MICwithout Li/MICLi)” value is recorded as over 10 in test [1]; over 2 in test [2] (Li^+ 197 mM (1380 ppm), Li2CO3); over 3 in test [3] (Li^+ 197 mM (1380 ppm), Li2CO3). Also, the MIC in test [2] (setting [6]) was 590 µM and 17.7 µg/mL; in test [2] (setting [8]), > 1180 µM and > 35.4 µg/mL; in test [3] (Li^+ 197 mM (1380 ppm), Li2CO3), 11800 µM and 354 µg/mL; in test [3] (no Li^+), > 35400 µM and > 1060 µg/mL.

For `O=[N+]([O-])C(Br)(CO)CO` [Bronopol], the “MIC ratio (MICwithout Li/MICLi)” value in test [1] (S. aureus, Li^+ 172 mM (1205 ppm), Li2CO3) was 6; in test [1] (setting [9]) it was 2; in test [1] (setting [4]) it was 6; in test [1] (setting [5]) it was 20; in test [2] (Li^+ 172 mM (1205 ppm), Li2CO3), over 3.75; in test [2] (Li^+ 197 mM (1380 ppm), Li2CO3), 3. Moreover, the MIC is 150 µM and 30 µg/mL in test [1] (Li^+ 172 mM (1205 ppm), Li2CO3); 450 µM and 90 µg/mL in test [1] (Li^+ 197 mM (1380 ppm), Li2CO3); 150 µM and 30 µg/mL in test [1] (Li^+ 329 mM (2305 ppm), Li2CO3); 50 µM and 9 µg/mL in test [1] (Li^+ 423 mM (2964 ppm), Li2CO3); 900 µM and 180 µg/mL in test [1] (no Li^+); 120 µM and 24 µg/mL in test [2] (ATCC11229, E. coli, Li^+ 172 mM (1205 ppm), Li2CO3, read-out: MIC active/aequeous). The MIC in test [2] (ATCC11229, E. coli, Li^+ 197 mM (1380 ppm), Li2CO3, read-out: MIC active/aequeous) was 180 µM and 35.4 µg/mL; in test [2] (ATCC11229, E. coli, no Li^+, read-out: MIC active/aequeous), 530 µM and 106 µg/mL.

Take `CN1CSC(=S)N(C)C1` [3.5-Dimethyltetrahydro-1,3,5-thiadiazine-2-]: the “MIC ratio (MICwithout Li/MICLi)” value in test [1] (setting [5]) was over 2.5; in test [2] (Li^+ 329 mM (2305 ppm), Li2CO3), 1.25. Also, the MIC in test [1] (Li^+ 423 mM (2964 ppm), Li2CO3) was 440 µM and 70.8 µg/mL; in test [1] (no Li^+) it was > 1090 µM and > 177 µg/mL; in test [2] (setting [7]) it was 870 µM and 142 µg/mL; in test [2] (setting [8]), 1090 µM and 177 µg/mL.
